Tests used:
Human Axl = Human Axl (Homo sapiens (Human), UniProt P30530, Q764R); assay: Human AXL kinase assay (33P radiometric, KinaseProfiler); type: biochemical; conditions: 10 μM ATP
Experimental: (§1) Kinase activity and compound inhibition were investigated using the ^33P-Phosphoryl transfer radiometric kinase assay, performed using the KinaseProfiler™ service of Eurofins Pharma Discovery Services UK Limited. Dose-response experiments were performed using nine compound concentrations in a 96-well microtiter plate. For each assay, all compounds were prepared to a 50× final assay concentration (50 μM) in 100% DMSO, then diluted in a half-log series, with the final top concentration at 1 μM. This working stock of the compound was added to the assay well as the first component in the reaction, followed by the remaining components as detailed in the following assay protocols below. The positive control wells (100% kinase activity) contain all components of the reaction including 2% DMSO (control for solvent effects), except the compound of interest. Blank wells contain all components of the reaction, with the reference inhibitor, staurosporine. This reference compound was used to abolish kinase activity and generated the 0% kinase activity base-line. IC50 values were calculated by nonlinear regression analysis using the sigmoidal dose-response (variable slope) curve fit on XLFit version 5.3 (ID Business Solutions).
Human Axl (residues H473-A894 with Q764R, 161 nM) was incubated with 8 mM MOPS pH 7.0, 0.2 mM EDTA, 250 μM KKSRGDYMTMQIG (SEQ ID NO. 43), 10 mM magnesium acetate and 10 μM [γ-33P-ATP]. The reaction was initiated by the addition of the Mg/ATP mix. After incubation for 40 minutes at room temperature, the reaction was stopped by the addition of phosphoric acid to a concentration of 0.5%. A reaction aliquot of 10 μL was then spotted onto a P30 filtermat and washed four times for 4 minutes in 0.425% phosphoric acid and once in methanol prior to drying and scintillation counting. Incorporated ^33P was measured using the Wallac Microbeta scintillation counter (Perkin Elmer).

Met [1] = target: T1, Met (Homo sapiens (Human), UniProt P08581); assay: Human Met kinase assay (33P radiometric, KinaseProfiler); type: biochemical; conditions: 10 μM ATP, read-out: c-Met IC50
Experimental: as §1
Human Met (residues R974-S1390 with A1209G and V1290L, 3.4 nM) was incubated with 8 mM MOPS pH 7.0, 0.2 mM EDTA, 250 μM KKKGQEEEYVFIE (SEQ ID NO. 45), 1 mM sodium orthovanadate, 5 mM […], 10 mM magnesium acetate, and 10 μM [γ-33P-ATP]. The reaction was initiated by the addition of the Mg/ATP mix. After incubation for 40 minutes at room temperature, the reaction was stopped by the addition of phosphoric acid to a concentration of 0.5%. A reaction aliquot of 10 μL was then spotted onto a P30 filtermat and washed four times for 4 minutes in 0.425% phosphoric acid and once in methanol prior to drying and scintillation counting. Incorporated 33P was measured using the Wallac Microbeta scintillation counter (Perkin Elmer).

Mer [2] = target: T2, Mer (Homo sapiens (Human), UniProt Q12866); assay: Human Mer kinase assay (33P radiometric, KinaseProfiler); type: biochemical; conditions: 10 μM ATP
Experimental: as §1
Human Mer (residues R557-E882 with H628Q and R794A, 0.7 nM) was incubated with 8 mM MOPS pH 7.0, 0.2 mM EDTA, 30 mM NaCl, 250 μM GGMEDIYFEFMGGKKK (SEQ ID NO. 44), 10 mM magnesium acetate, and 10 μM [γ-^33P-ATP]. The reaction was initiated by the addition of the Mg/ATP mix. After incubation for 40 minutes at room temperature, the reaction was stopped by the addition of phosphoric acid to a concentration of 0.5%. A reaction aliquot of 10 μL was then spotted onto a P30 filtermat and washed four times for 4 minutes in 0.425% phosphoric acid and once in methanol prior to drying and scintillation counting. Incorporated ^33P was measured using the Wallac Microbeta scintillation counter (Perkin Elmer).

KDR = KDR (Homo sapiens (Human), UniProt P35968); assay: KDR autophosphorylation ELISA in HUVEC cells; type: cell-based; conditions: cellular, VEGF165-stimulated, phospho-KDR ELISA
Outline: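 HUVEC, 24 h serum-free starvation; cpd 8-pt dilution, 0.3% DMSO final, 1 h; VEGF165 100 ng/mL, 5 min; cold lysis; phospho-KDR ELISA; IC50, 4PL.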

Met [3] = target: T1, Met; assay: Met autophosphorylation ELISA in PC-3 cells; type: cell-based; conditions: cellular, HGF-stimulated, phospho-Met ELISA, read-out: c-Met IC50
Outline: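 PC-3 cells serum-starved 3 h were treated 1 h with an 8-point compound series (0.3% DMSO), then stimulated 10 min with 100 ng/mL human HGF. Phospho-Met (panTyr) in lysates was measured by sandwich ELISA against DMSO (100%) and reference-inhibitor (0%) controls, and IC50 came from a 4-parameter logistic fit.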
Target sequence in this assay (P08581 25-1390): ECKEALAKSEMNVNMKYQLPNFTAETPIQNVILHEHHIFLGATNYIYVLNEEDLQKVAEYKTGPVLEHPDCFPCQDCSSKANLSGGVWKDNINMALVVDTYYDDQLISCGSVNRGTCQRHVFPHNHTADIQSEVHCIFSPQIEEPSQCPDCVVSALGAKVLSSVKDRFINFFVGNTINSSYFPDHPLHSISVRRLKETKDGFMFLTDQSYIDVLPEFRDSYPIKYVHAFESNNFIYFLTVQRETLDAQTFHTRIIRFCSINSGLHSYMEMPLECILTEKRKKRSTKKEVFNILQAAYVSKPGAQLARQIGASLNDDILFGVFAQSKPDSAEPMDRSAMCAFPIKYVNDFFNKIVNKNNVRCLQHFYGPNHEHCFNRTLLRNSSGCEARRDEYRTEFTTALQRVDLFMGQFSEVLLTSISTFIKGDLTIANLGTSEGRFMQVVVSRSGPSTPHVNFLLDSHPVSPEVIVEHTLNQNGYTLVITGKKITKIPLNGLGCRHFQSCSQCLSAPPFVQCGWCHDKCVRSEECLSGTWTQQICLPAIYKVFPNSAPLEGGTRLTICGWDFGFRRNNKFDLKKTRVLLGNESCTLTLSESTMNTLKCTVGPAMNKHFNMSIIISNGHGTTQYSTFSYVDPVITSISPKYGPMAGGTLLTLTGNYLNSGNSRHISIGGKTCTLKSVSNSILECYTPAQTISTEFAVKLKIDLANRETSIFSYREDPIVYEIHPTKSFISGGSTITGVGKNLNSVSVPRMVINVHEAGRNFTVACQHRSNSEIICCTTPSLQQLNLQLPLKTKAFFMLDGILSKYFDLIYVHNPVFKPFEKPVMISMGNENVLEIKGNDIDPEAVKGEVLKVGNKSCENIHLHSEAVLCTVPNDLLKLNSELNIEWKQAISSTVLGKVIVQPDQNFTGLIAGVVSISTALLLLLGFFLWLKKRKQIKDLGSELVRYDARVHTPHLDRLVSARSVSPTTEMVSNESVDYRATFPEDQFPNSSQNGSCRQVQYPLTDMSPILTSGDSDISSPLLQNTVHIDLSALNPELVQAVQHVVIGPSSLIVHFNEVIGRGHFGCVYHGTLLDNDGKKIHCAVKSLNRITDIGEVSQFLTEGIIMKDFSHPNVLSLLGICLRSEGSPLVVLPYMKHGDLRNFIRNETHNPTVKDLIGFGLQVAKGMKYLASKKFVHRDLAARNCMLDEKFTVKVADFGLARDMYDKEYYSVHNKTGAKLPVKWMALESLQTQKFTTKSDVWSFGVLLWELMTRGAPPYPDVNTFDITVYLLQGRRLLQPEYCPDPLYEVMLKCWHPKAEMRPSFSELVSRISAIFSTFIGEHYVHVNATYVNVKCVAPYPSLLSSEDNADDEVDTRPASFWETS

Mer [4] = target: T2, Mer; assay: Mer autophosphorylation ELISA in transient transfected 293A cells; type: cell-based; conditions: cellular, MERTK-transfected 293A cells, phospho-Mer ELISA
Experimental: 293A cells (Thermo Fisher #R70507) were seeded at 1.5×10^6 cells/well onto 100 mm dish (Greiner #664169), in DMEM (Thermo Fisher #11995-040) containing 10% FBS (Thermo Fisher #26140-079), 1% MEM NEAA (Thermo Fisher #11140-050), 1% GlutaMax (Thermo Fisher #35050-061), and 1% Penicillin Streptomycin (Thermo Fisher #15140-122). 293A cells were incubated at 37° C., 5% CO2 for 24 h and then transfected with 6 μg MERTK DNA (Genecopoeia #EX-Z8208-M02) using TransIT LT1 transfection reagent (Mirus-Bio #MIR2305). After 24 h incubation, the transfected 293A cells were seeded at 1×10^5 cells/well onto 96-well plates (Corning #3904) in DMEM growth medium overnight. Test compounds were serially diluted to produce an 8-point dose curve in fresh serum-free medium to a final concentration of 0.3% DMSO (vehicle) and added to the cells and incubated for 1 h. Cells were then immediately lysed with 150 μL of cold 1× lysis buffer [20 mM Tris, 137 mM sodium chloride, 2 mM EDTA, 10% glycerol, 1% NP-40 alternative, 1 mM activated sodium orthovanadate, 1 mM PefaBloc SC (Sigma-Aldrich #11429868001), protease/phosphatase inhibitor tablet (Thermo Fisher #A32959)]. Lysates were clarified by centrifugation and 50 μL/well added into the human phospho-Mer DuoSet IC ELISA (R&D Systems #DYC2579-2). Assay was performed according to manufacturer's instructions and sample phospho-Mer concentrations were extrapolated using human phospho-Mer control (R&D Systems #841793) as a standard. Positive control wells (100% activity) contained DMSO-treated cell lysates. Negative control wells (0% activity) contained reference inhibitor-treated cell lysates. IC50 values were calculated by nonlinear regression analysis using a 4-parameter logistic curve fit in ActivityBase XE (IDBS).
Target sequence in this assay (Q12866 21-999): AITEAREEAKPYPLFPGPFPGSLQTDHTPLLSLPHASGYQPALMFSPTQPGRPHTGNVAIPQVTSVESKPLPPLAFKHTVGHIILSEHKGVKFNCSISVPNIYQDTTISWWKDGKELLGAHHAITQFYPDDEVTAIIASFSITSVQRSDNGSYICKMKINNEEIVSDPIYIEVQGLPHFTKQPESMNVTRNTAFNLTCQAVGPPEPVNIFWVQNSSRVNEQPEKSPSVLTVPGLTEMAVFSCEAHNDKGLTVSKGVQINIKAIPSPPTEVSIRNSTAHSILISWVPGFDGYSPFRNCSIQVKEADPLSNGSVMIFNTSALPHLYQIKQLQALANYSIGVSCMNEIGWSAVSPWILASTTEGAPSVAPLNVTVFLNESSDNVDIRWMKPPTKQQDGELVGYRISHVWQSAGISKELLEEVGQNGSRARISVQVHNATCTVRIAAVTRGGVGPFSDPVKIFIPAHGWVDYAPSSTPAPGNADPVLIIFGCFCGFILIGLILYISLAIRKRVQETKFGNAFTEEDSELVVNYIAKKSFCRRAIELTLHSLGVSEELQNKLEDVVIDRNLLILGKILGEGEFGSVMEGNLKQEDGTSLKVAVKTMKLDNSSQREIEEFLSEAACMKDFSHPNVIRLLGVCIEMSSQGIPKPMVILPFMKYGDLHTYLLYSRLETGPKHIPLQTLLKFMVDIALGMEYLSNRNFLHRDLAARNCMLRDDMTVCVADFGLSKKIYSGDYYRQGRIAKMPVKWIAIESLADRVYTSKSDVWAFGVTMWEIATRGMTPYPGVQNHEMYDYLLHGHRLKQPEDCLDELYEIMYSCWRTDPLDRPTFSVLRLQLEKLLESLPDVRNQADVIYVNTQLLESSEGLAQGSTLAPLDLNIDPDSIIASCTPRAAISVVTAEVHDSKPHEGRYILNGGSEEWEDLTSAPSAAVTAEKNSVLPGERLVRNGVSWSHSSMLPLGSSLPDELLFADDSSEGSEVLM

AXL = AXL (Homo sapiens (Human), UniProt P30530); assay: AXL autophosphorylation ELISA in A-172 cells; type: cell-based; conditions: cellular, Gas6-stimulated, phospho-AXL ELISA
Outline: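 A-172 glioblastoma cells, serum-starved 24 h, took compounds for 1 h (8-point curve, 0.3% DMSO) before 15 min stimulation with 1 μg/mL recombinant human Gas6. Lysate phospho-AXL measured by ELISA against a phospho-AXL standard, normalized to DMSO (100%) and reference inhibitor (0%); IC50 from 4-parameter logistic fit.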

Sequence of AXL (P30530 26-894): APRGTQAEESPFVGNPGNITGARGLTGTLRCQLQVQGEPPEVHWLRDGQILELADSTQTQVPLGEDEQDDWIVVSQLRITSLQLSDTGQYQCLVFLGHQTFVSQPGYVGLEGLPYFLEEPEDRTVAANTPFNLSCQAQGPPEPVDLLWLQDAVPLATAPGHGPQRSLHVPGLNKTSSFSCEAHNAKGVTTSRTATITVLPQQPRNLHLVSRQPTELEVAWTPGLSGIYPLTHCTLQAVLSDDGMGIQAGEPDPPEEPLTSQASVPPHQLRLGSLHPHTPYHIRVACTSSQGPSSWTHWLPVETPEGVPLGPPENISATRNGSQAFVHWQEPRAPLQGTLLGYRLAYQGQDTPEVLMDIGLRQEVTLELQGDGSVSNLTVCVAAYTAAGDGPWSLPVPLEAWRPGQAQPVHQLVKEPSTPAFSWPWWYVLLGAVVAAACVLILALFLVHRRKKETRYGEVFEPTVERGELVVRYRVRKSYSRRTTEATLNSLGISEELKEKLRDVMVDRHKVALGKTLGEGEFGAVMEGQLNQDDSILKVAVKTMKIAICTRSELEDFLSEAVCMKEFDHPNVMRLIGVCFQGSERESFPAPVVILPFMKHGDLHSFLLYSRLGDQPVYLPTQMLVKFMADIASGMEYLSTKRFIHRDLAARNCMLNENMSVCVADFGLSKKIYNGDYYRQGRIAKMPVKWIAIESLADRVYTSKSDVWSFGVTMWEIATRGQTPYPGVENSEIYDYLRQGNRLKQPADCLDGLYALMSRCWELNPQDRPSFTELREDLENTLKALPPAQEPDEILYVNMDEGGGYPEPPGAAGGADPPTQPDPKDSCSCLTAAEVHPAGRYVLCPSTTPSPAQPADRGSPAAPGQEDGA
Sequence of KDR (P35968 20-1356): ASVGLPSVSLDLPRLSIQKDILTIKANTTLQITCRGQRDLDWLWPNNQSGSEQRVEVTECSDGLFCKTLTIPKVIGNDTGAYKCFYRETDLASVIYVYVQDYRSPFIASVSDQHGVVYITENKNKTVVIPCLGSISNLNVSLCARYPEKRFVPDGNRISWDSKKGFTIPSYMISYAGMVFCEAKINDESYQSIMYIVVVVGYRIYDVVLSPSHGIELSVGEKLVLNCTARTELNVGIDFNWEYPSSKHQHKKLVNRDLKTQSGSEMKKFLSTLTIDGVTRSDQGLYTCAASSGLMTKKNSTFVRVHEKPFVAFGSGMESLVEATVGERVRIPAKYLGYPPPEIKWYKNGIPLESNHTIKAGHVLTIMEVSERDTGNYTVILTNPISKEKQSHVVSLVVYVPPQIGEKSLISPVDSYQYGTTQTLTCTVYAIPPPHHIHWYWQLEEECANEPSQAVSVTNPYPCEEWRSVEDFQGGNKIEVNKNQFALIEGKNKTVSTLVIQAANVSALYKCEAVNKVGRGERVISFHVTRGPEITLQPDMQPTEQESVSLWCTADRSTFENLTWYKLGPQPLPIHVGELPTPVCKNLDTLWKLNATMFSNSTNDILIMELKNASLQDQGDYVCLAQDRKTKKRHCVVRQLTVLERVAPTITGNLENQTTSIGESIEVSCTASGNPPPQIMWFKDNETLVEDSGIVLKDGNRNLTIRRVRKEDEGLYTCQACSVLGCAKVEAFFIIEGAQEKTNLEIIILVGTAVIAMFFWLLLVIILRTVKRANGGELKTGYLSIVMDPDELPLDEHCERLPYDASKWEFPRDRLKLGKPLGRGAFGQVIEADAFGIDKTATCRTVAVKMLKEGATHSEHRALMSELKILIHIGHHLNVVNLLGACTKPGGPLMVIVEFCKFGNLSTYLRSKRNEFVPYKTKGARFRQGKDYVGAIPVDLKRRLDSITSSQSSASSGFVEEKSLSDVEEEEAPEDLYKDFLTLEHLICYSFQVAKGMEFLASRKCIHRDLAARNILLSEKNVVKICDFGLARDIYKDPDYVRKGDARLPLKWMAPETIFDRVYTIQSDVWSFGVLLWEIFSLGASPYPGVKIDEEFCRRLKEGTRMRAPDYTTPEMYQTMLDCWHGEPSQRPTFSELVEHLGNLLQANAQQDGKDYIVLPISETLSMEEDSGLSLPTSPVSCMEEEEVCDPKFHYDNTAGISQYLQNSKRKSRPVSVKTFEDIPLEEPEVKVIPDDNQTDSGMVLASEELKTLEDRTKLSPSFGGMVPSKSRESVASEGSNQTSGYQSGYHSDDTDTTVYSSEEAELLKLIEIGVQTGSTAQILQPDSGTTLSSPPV
Sequence of Human Axl (P30530 473-894 Q764R): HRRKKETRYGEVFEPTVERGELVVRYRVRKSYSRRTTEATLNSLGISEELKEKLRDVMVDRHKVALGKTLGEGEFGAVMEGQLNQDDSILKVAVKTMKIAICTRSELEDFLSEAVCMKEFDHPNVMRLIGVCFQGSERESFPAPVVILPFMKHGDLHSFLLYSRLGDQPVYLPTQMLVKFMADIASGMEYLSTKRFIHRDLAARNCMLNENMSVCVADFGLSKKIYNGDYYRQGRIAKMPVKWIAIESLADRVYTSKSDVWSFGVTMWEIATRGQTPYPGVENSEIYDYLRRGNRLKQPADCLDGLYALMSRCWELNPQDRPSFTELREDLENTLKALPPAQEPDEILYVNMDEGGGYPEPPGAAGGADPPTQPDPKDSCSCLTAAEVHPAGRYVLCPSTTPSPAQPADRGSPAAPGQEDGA

Row | IC50 (Human Axl) [nM] | IC50 (Met [1]) [nM] | IC50 (Mer [2]) [nM] | IC50 (KDR) [nM] | IC50 (Met [3]) [nM] | IC50 (Mer [4]) [nM] | IC50 (AXL) [nM] | Compound
1 | 100 to 1000 | 100 to 1000 | 100 to 1000 |  |  |  |  | COc1cc2nccc(Oc3ccc(NC(=O)C4(C(=O)Nc5ccc(F)cc5)CC4)cn3)c2cc1C(=O)O [Compound 13, 4-[5-[[1-[(4-Fluorophenyl)carbamoyl]cyclopropanecarbonyl]-amino]pyridin-2-yl]oxy-7-methoxyquinoline-6-carboxylic acid]
2 |  |  |  | > 300 | 100 to 300 | 10 to 100 | 10 to 100 | COc1cc2nccc(Oc3ccc(NC(=O)C4(C(=O)Nc5ccc(F)cc5)CC4)c(OC)n3)c2nc1OC [Compound 86, 1-N′-[6-[(6,7-Dimethoxy-1,5-naphthyridin-4-yl)oxy]-2-methoxypyridin-3-yl]-1-N-(4-fluorophenyl)cyclopropane-1,1-dicarboxamide]
3 |  |  |  | > 300 | > 300 | > 300 | 10 to 100 | COc1cc2nccc(Oc3ccc(NC(=O)C4(C(=O)Nc5ccc(F)cc5)CC4)c(C)n3)c2nc1OC [Compound 87, 1-N′-[6-[(6,7-Dimethoxy-1,5-naphthyridin-4-yl)oxy]-2-methylpyridin-3-yl]-1-N-(4-fluorophenyl)cyclopropane-1,1-dicarboxamide]
4 |  |  |  | > 300 | 10 to 100 | 10 to 100 | ≤ 10 | COc1cc2nccc(Oc3nc(F)c(NC(=O)C4(C(=O)Nc5ccc(F)cc5)CC4)cc3F)c2nc1OC [Compound 96, 1-N′-[6-[(6,7-Dimethoxy-1,5-naphthyridin-4-yl)oxy]-2,5-difluoropyridin-3-yl]-1-N-(4-fluorophenyl)cyclopropane-1,1-dicarboxamide]
5 |  |  |  | > 300 | 100 to 300 | 10 to 100 | 10 to 100 | COCCOc1cc2nccc(Oc3ncc(NC(=O)C4(C(=O)Nc5ccc(F)cc5)CC4)cc3F)c2nc1OC [Compound 116, 1-N′-[5-Fluoro-6-[[6-methoxy-7-(2-methoxyethoxy)-1,5-naphthyridin-4-yl]oxy]pyridin-3-yl]-1-N-(4-fluorophenyl)cyclopropane-1,1-dicarboxamide]
6 |  |  |  | > 300 | 100 to 300 | > 300 | 100 to 300 | COc1ccc(COc2cc3nccc(Oc4ncc(NC(=O)C5(C(=O)Nc6ccc(F)cc6)CC5)cc4F)c3nc2OC)cc1 [Compound 120, 1-N′-[5-Fluoro-6-[[6-methoxy-7-[(4-methoxyphenyl)methoxy]-1,5-naphthyridin-4-yl]oxy]pyridin-3-yl]-1-N-(4-fluorophenyl)cyclopropane-1,1-dicarboxamide]
7 |  |  |  | > 300 | 10 to 100 | 10 to 100 | 10 to 100 | COc1nc2c(Oc3ncc(NC(=O)C4(C(=O)Nc5ccc(F)cc5)CC4)cc3F)ccnc2cc1OCCCN1CCOCC1 [Compound 122, 1-N′-[5-Fluoro-6-[[6-methoxy-7-(3-morpholin-4-ylpropoxy)-1,5-naphthyridin-4-yl]oxy]pyridin-3-yl]-1-N-(4-fluorophenyl)cyclopropane-1,1-dicarboxamide]
8 |  |  |  | > 300 | 10 to 100 | 10 to 100 | 10 to 100 | COc1nc2c(Oc3ncc(NC(=O)C4(C(=O)Nc5ccc(F)cc5)CC4)cc3F)ccnc2cc1OCCN1CCOCC1 [Compound 123, 1-N′-[5-Fluoro-6-[[6-methoxy-7-(2-morpholin-4-ylethoxy)-1,5-naphthyridin-4-yl]oxy]pyridin-3-yl]-1-N-(4-fluorophenyl)cyclopropane-1,1-dicarboxamide]
9 |  |  |  | > 300 | 100 to 300 | 100 to 300 | 100 to 300 | COc1nc2c(Oc3ncc(NC(=O)C4(C(=O)Nc5ccc(F)cc5)CC4)cc3F)ccnc2cc1OCC(N)=O [Compound 124, 1-N′-[6-[[7-(2-Amino-2-oxoethoxy)-6-methoxy-1,5-naphthyridin-4-yl]oxy]-5-fluoropyridin-3-yl]-1-N-(4-fluorophenyl)cyclopropane-1,1-dicarboxamide]
10 |  |  |  | > 300 | 10 to 100 | 10 to 100 | 10 to 100 | COc1nc2c(Oc3ncc(NC(=O)C4(C(=O)Nc5ccc(F)cc5)CC4)cc3F)ccnc2cc1OCCCN(C)C [Compound 125, 1-N′-[6-[[7-[3-(Dimethylamino)propoxy]-6-methoxy-1,5-naphthyridin-4-yl]oxy]-5-fluoropyridin-3-yl]-1-N-(4-fluorophenyl)cyclopropane-1,1-dicarboxamide]
11 |  |  |  | > 300 | 10 to 100 | 100 to 300 | 10 to 100 | COc1nc2c(Oc3ncc(NC(=O)C4(C(=O)Nc5ccc(F)cc5)CC4)cc3F)ccnc2cc1OCC(O)CO (centres unmarked) [Compound 127, 1-N′-[6-[[7-(2,3-Dihydroxypropoxy)-6-methoxy-1,5-naphthyridin-4-yl]oxy]-5-fluoropyridin-3-yl]-1-N-(4-fluorophenyl)cyclopropane-1,1-dicarboxamide]
12 |  |  |  | > 300 | 100 to 300 | 100 to 300 | 10 to 100 | COc1nc2c(Oc3ccc(NC(=O)C4(C(=O)Nc5ccc(F)cc5)CC4)cn3)ncnc2cc1OCCCN1CCOCC1 [Compound 155, 1-N-(4-Fluorophenyl)-1-N′-[6-[6-methoxy-7-(3-morpholin-4-ylpropoxy)pyrido[3,2-d]pyrimidin-4-yl]oxypyridin-3-yl]cyclopropane-1,1-dicarboxamide]
